Target: hyaluronidase (HAase)
Assay: Hyaluronidase (HAase) inhibitory activity, N-acetylglucosamine from hyaluronic acid, DMAB absorbance at 540 nm
Type: biochemical
Description: The hyaluronidase (HAase) inhibitory activity was identified by measuring N-acetylglucosamine produced by degradation of hyaluronic acid by hyaluronidase. 12.5 μL of HAase (8 mg/mL) dissolved in 0.1 M acetate buffer (pH 3.5) was mixed with 12.5 μL of agar partial hydrolysis product (PHP) at a concentration of 9 mg/mL and reacted at 37° C. for 20 minutes. To activate the HAase, the mixture was added with 25 μL of 12.5 mM CaCl2) and reacted at 37 °C for 20 minutes, and added with 62.5 μL of hyaluronic acid (2.4 mg/ml) dissolved in 0.1 M acetate buffer (pH 3.5) and reacted at 37° ° C. for 40 minutes again. To stop the substrate-enzyme reaction, the reaction solution was added with 25 μl of 0.4 N NaOH and 25 μl of 0.4 N potassium tetraborate, reacted at 100° C. for 3 minutes, and then cooled. The reaction solution was added with 750 μl of a DMAB solution and cultured at 37 °C for 20 minutes, and the absorbance was measured at 540 nm. The inhibitory activity was calculated using the following equation.

IC50 (hyaluronidase inhibition): 28 ± 10 µg/mL | Inhibition (%) (sample solution 1 mg/mL): 65.32 ± 0.20%
SMILES: O=C([O-])c1cc(=O)c2c(OCC(O)COc3cccc4oc(C(=O)[O-])cc(=O)c34)cccc2o1.[Na+].[Na+] [DSCG, Disodium cromoglycate]

Source: US20240269058A1, “AGAR HYDROLYSIS PRODUCT HAVING HYALURONIDASE INHIBITORY ACTIVITY AND USES THEREOF” (KOREA INSTITUTE OF OCEAN SCIENCE & TECHNOLOGY, priority 2022, published 2024)
